Patent US10301630B2, “Methods and compositions for unsilencing imprinted genes” (The University of North Carolina at Chapel Hill, priority 2010, dated 2019)
Like-named read-outs stand apart in the source and are kept apart here.

Tested on: paternal Ube3a-YFP allele
Experiment: High-content imaging of paternal Ube3a-YFP unsilencing in primary cortical neurons
Assay type: cell-based, mouse
Details: 72 h; for EC50: unsilencing paternal Ube3a-YFP; for Potency EC20 / EC20 / Potency EC20 (nM): 1 nM to 30 μM; for EC20: read-out: Potency EC20; for unsilencing of paternal Ube3a-YFP in dose-response experiments: cultured Ube3a m+/pYFP neurons
Procedure: In all screening assays, primary cortical neurons from Ube3a-YFP mice are isolated from embryonic day 15.5 animals, and the genotype of animals is determined to identify mice that encode the Ube3a-YFP transgene on the paternal allele. Freshly isolated cortical neurons are seeded into 384 well plates and cultured for 7 days. At day in vitro seven, screening is performed using multiple chemical libraries and compound concentration of 10 μM in 0.2% DMSO vehicle. After 72 h of drug exposure (run in quadruplicate wells), neurons are fixed with 4% para formaldehyde and processed for immunofluorescence using an anti-GFP-Alexa 488 conjugated antibody to enhance the signal of Ube3a-YFP in neurons. For image analyses, individual wells of immunofluorescence-processed plates are imaged fro DAPI and GFP fluorescence using the BD-Pathway 855 high-content imaging microscope. Ube3a-YFP fluorescence intensities in individual neurons are determined in drug-treated wells and normalized to 0.2% DMSO-treated (i.e., vehicle control) wells using custom written macros and algorithms using NIH Image J and Arrayscan Cell Profiler software programs. These image analyses enable masking of nuclei in individual neurons and determination of Ube3a-YFP fluorescence intensity in the nuclei of individual neurons.
For these studies, DIV 7 primary neurons encoding paternal Ube3a-YFP are dose treated with hit compounds across seven orders of magnitude in full and half log molar concentrations (3 pM to 30 μM). Ube3a-YFP fluorescence intensities in living neurons are determined again by high-content imaging microscopy after 72 h treatments. The dose response results are analyzed by least squares sigmoidal dose-response curve fitting models using Graphpad Prism 5.0 (Graphpad Software, Inc.). The calculated EC50 values (potencies) and Y value top plateau (estimated efficacies or Emax) enable comparative analyses of the relative potency and efficacy of the identified compounds.
Primary cortical neurons were isolated from E13.5-16.5 Ube3a-YFP mice. Screening was performed in quadruplicate at DIV7 using multiple chemical libraries and a compound concentration of 10 μM in 0.2% DMSO vehicle. After 72 h of drug exposure, neurons were fixed with 4% paraformaldehyde in PBS for 35 min, permeabilized with 0.3% Triton X-100 in PBS on ice for 30 min, and blocked by 5% goat serum with 0.1% Triton X-100 in PBS at room temperature for 1 hr. Cells were incubated with a rabbit polyclonal antibody to GFP (1:1000, Novus Biologicals, NB600-308) at room temperature for 1 hr and then incubated with Alexa Fluor 488 goat antibody to rabbit IgG (1:200, Invitrogen, A11008) and DAPI (1:10,000, Invitrogen, D-1306) at room temperature for 30 min. Individual wells of immunofluorescence-processed plates were imaged for DAPI or Alexa 488 fluorescence using the BD Pathway 855 high-content imaging microscope with a 488 excitation/515 long pass filter. Antibody-enhanced UBE3A-YFP fluorescence intensities were determined from individual neurons in drug-treated wells and normalized to neurons in wells treated with 0.2% DMSO (vehicle control). Analyses were performed with custom macros and algorithms using NIH Image J and Arrayscan Cell Profiler software programs (Thermo Scientific/Cellomics). These image analyses enabled masking of nuclei in individual neurons and determination of UBE3A-YFP fluorescence intensities in the nuclei of individual neurons (FIG. 16).
DIV7 primary neurons from Ube3a^m+/pYFP mice were dose-treated for 72 h with topoisomerase I and II inhibitors in ten point dose-responses in full and half log molar concentrations (1 nM to 30 μM). Neurons were fixed, processed for immunofluorescence, and UBE3A-YFP fluorescence intensities were again determined by high-content imaging microscopy.

[1] = Table 1, Ube3a-YFP fluorescence intensity above control cells (0.2% DMSO treated), cortical neurons
[2] = Table 1, cortical neurons, read-out: EC50
[3] = Table 3, unsilencing the paternal allele of Ube3a-YFP in cultured neurons
[4] = Mus musculus, Cortical neurone, Table 1, Ube3a-YFP fluorescence intensity above control cells (0.2% DMSO treated), cortical neurons, read-out: Efficacy Emax (fold over control)
[5] = Mus musculus, Cortical neurone, Table 1, cortical neurons, read-out: EC50
[6] = Mus musculus, Neuron, Table 3, unsilencing the paternal allele of Ube3a-YFP in cultured neurons
[7] = Mus musculus, Neuron, Table 3, unsilencing the paternal allele of Ube3a-YFP in cultured neurons, read-out: Efficacy Emax (fold over vehicle)

**Q.** Which results are given for `COc1cc2c3c(n(CCCn4ccnc4)c(=O)c2cc1OC)-c1cc2c(cc1C3=O)OCO2` [NSC725776]?
**A.** Efficacy Emax (fold over control) [1]: 1.82 ± 0.05 fold over control; EC50 [2]: 9.2 ± 2 nM; Efficacy Emax (fold over vehicle) [3]: 1.76 ± 0.03 fold over vehicle; Potency EC20 [3]: 10 ± 1.6 nM

**Q.** With `COc1cc(NS(C)(=O)=O)ccc1Nc1c2ccccc2nc2ccccc12` [Amsacrine] as the molecule, how does the maximal fold induction [4] read?
**A.** 1.65 ± 0.05

**Q.** What about the EC50 [5] of the same molecule?
**A.** 28 ± 10 nM

**Q.** What about the EC20 [6] of the same molecule?
**A.** 27 ± 5.2 nM

**Q.** What about the maximal fold induction [7] of the same molecule?
**A.** 1.74 ± 0.06

**Q.** Which results are given for `CCc1c2c(nc3ccc(O)cc13)-c1cc3c(c(=O)n1C2)COC(=O)[C@]3(O)CC` [7-Ethyl-10-Hydroxy-CPT]?
**A.** Efficacy Emax (fold over control) [1]: 2.00 ± 0.09 fold over control; EC50 [2]: 33 ± 1.3 nM; Efficacy Emax (fold over vehicle) [3]: 1.99 ± 0.06 fold over vehicle; Potency EC20 [3]: 11 ± 3.2 nM

**Q.** Which results are given for `COc1cc2c3c(n(CCCNCCO)c(=O)c2cc1OC)-c1cc2c(cc1C3=O)OCO2` [NSC706744]?
**A.** Efficacy Emax (fold over control) [1]: 1.76 ± 0.03 fold over control; EC50 [2]: 6.2 ± 2 nM; Efficacy Emax (fold over vehicle) [3]: 1.84 ± 0.07 fold over vehicle; Potency EC20 [3]: 11 ± 3.2 nM

**Q.** For `CC[C@@]1(O)C(=O)OCc2c1cc1n(c2=O)Cc2cc3c([N+](=O)[O-])cccc3nc2-1` [Rubitecan (9-Nitro-CPT), Rubitecan], which maximal fold induction [4] is on record?
**A.** 2.07 ± 0.08

**Q.** What about the EC50 [5] of the same molecule?
**A.** 43 ± 9.1 nM

**Q.** What about the EC20 [6] of the same molecule?
**A.** 62 ± 18 nM

**Q.** And the maximal fold induction [7]?
**A.** 2.09 ± 0.09

**Q.** With `C[C@@H](CN1CC(=O)NC(=O)C1)N1CC(=O)NC(=O)C1` [Dexrazoxane (ICRF-187), Dexrazoxane] as the molecule, how does the EC20 [6] read?
**A.** 20500 ± 1450 nM

**Q.** What about the maximal fold induction [7] of the same molecule?
**A.** 1.82 ± 0.05

**Q.** And the “unsilencing of paternal Ube3a-YFP in dose-response experiments” value?
**A.** unsilenced the paternal Ube3a-YFP allele

**Q.** For `COc1cc([C@@H]2c3cc4c(cc3[C@@H](O[C@@H]3O[C@@H]5CO[C@@H](C)O[C@H]5[C@H](O)[C@H]3O)[C@H]3COC(=O)[C@H]23)OCO4)cc(OC)c1O` [Etoposide], which EC20 [6] is on record?
**A.** 1600 ± 980 nM

**Q.** What about the maximal fold induction [7] of the same molecule?
**A.** 1.68 ± 0.04

**Q.** And the “unsilencing of paternal Ube3a-YFP in dose-response experiments” value?
**A.** unsilenced the paternal Ube3a-YFP allele

**Q.** Which results are given for `CC[C@@]1(O)C(=O)OCc2c1cc1n(c2=O)Cc2cc3cc(O)ccc3nc2-1` [10-Hydroxy-CPT]?
**A.** Efficacy Emax (fold over control) [1]: 1.68 ± 0.06 fold over control; EC50 [2]: 40 ± 1.4 nM; Efficacy Emax (fold over vehicle) [3]: 1.82 ± 0.08 fold over vehicle; Potency EC20 [3]: 14 ± 5.7 nM

**Q.** Which “Efficacy Emax (fold over control)” value [1] does the source give for `COc1cc2c3c(n(CCCN4CCOCC4)c(=O)c2cc1OC)-c1cc2c(cc1C3=O)OCO2` [NSC724998] here?
**A.** 1.65 ± 0.03 fold over control

**Q.** And the EC50 [2]?
**A.** 12 ± 4 nM

**Q.** What about the “Efficacy Emax (fold over vehicle)” value [3] of the same molecule?
**A.** 1.69 ± 0.03 fold over vehicle

**Q.** What about the “Potency EC20” value [3] of the same molecule?
**A.** 14 ± 2.2 nM

**Q.** Which results are given for ICRF-193?
**A.** EC50 (Table 1, cortical neurons): 131 ± 13 nM; Potency EC20 (nM) [3]: 205 ± 70^ nM; unsilencing of paternal Ube3a-YFP in dose-response experiments: unsilenced the paternal Ube3a-YFP allele

**Q.** What does the source list for `CC[C@@]1(O)C(=O)NCc2c1cc1n(c2=O)Cc2cc3ccccc3nc2-1` [Lactam E ring-CPT (inactive), Lactam E ring-CPT]?
**A.** Efficacy Emax (fold over vehicle) [3]: inactive; Potency EC20 (nM) [3]: inactive; unsilencing of paternal Ube3a-YFP in dose-response experiments: failed to unsilence the paternal Ube3a-YFP allele

**Q.** With `CCc1c2c(nc3ccccc13)-c1cc3c(c(=O)n1C2)COC(=O)[C@]3(O)CC` [7-Ethyl-CPT, 7-Ethyl-Camptothecin] as the molecule, how does the “Efficacy Emax (fold over control)” value [1] read?
**A.** 1.68 ± 0.05 fold over control

**Q.** What about the EC50 [2] of the same molecule?
**A.** 49 ± 1.3 nM

**Q.** What about the “Efficacy Emax (fold over vehicle)” value [3] of the same molecule?
**A.** 1.70 ± 0.04 fold over vehicle

**Q.** What about the “Potency EC20” value [3] of the same molecule?
**A.** 7.2 ± 2.3 nM

**Q.** `CC[C@@]1(O)C(=O)OCc2c1cc1n(c2=O)Cc2c-1nc1ccc(O)cc1c2[Si](C)(C)C(C)(C)C` [Silatecan (DB67), Silatecan] was tested. Which maximal fold induction [4] did it give?
**A.** 1.71 ± 0.06

**Q.** What about the EC50 [5] of the same molecule?
**A.** 2640 ± 95 nM

**Q.** What about the EC20 [6] of the same molecule?
**A.** 2240 ± 171 nM

**Q.** And the maximal fold induction [7]?
**A.** 1.65 ± 0.05

**Q.** Which results are given for `CC[C@@]1(O)C(=O)OCc2c1cc1n(c2=O)Cc2c-1nc1ccccc1c2CCNC(C)C` [Belotecan (CKD602), Belotecan]?
**A.** maximal fold induction [4]: 1.85 ± 0.04; EC50 [5]: 18 ± 1.1 nM; EC20 [6]: 19 ± 4.4 nM; maximal fold induction [7]: 1.88 ± 0.05

**Q.** For `CC[C@@]1(O)C(=O)OCc2c1cc1n(c2=O)Cc2cc3ccccc3nc2-1` [Camptothecin (CPT), Camptothecin], which maximal fold induction [4] is on record?
**A.** 1.66 ± 0.06

**Q.** What about the EC50 [5] of the same molecule?
**A.** 32 ± 1.3 nM

**Q.** What about the EC20 [6] of the same molecule?
**A.** 21 ± 3.8 nM

**Q.** And the maximal fold induction [7]?
**A.** 2.11 ± 0.05
